Measurements published in patent US5342974A, “Halogenated anthraquinone and their use as near infrared rays absorbing optical filters” (Mitsui Toatsu Chemicals, Incorporated, priority 1987, dated 1994).

What was measured:
[1] = Transmittance at 860 nm of the product dissolved in chloroform; assay type: physicochemical; conditions: for transmittance at 860 nm of the product in chloroform: product/chloroform=4 mg/100 ml; for Transmittance*: measured at 860 nm in chloroform (Table 1)
Text: In order to use colorants consisted in such optical filters, fairly high purity is required. However conventional near infrared rays absorbing colorants have low purity and inadequate absorption characteristics and thus can scarecely be used. Particularly in case of a 1,4,5,8-tetraanilidoanthraquinone, the allowable limit of its transmittance in the vicinity of 860 nm is at a level of about 95 to about 96% (a concentration of the dissolved colorant at the time of the transmittance measurement is 4 mg per 100 ml of chloroform). If its transmittance is below this level, the transmission of semiconductor laser beams is hindered noticeably, and therefore it is difficult to use such a colorant as a near infrared rays absorbing filter for measuring equipment and the like where particularly high accuracy is required.
In general, laser beams used for the near infrared rays absorbing filters have a wavelength of 830 nm or more, but the wavelength depends upon use applications. In the examples described following, the most usual wavelength of about 860 nm was used to measure the transmittance of compounds represented by the formula (I), and the estimation was made by comparing absorption wave shapes.
A mixture of 10.87 parts of 99%-purity 1,4,5,8-tetrachloroanthraquinone recrystallized from chlorobenzene, 27.2 parts of p-toluidine, 31.3 parts of p-chloroaniline, 13.4 parts of potasssium acetate, 1.24 parts of copper sulfate and 3.41 parts of benzyl alcohol was heated 130° C. under a nitrogen gas flow and the reaction mixture was then maintained at this temperature for 6.5 hours. Afterward, the reaction mixture was cooled to 70° C. and was then poured into 217 parts of ethanol, followed by filtration, ethanol washing, water washing and drying. The resultant crude product was then subjected to recrystallization from pyridine, thereby obtaining 14.2 parts of desired 1-(p-chloroanilido)-4,5,8-tris(p-methylanilido)anthraquinone (yield=70%) in high purity. By the use of a high-speed liquid chromatography (made by Shimadzu Seisakusho Ltd., SHIM-PACK CLC-ODS column, acetonitrile development, detection at 254 nm), it was confirmed that the purity of the product was 99.5%. In addition, the transmittance at 860 nm of the product in chloroform was 99% (product/chloroform=4 mg/100 ml).
The same procedure as in Example 1 or 3 was repeated to synthesize the compounds shown in Table 1, and yield, purity and transmittance at 860 nm of each product were then measured. The respective substituents A, B, C and D in the table correspond to those of formula (I).
*The transmittance was measured at 860 nm in chloroform.

[2] = Transmittance-versus-wavelength curve in chloroform (FIG. 1), judged as a near infrared filter; assay type: physicochemical; conditions: curve 3 of FIG. 1
Text: FIG. 1 is a graph illustrating transmittance to wavelength of a solution in chloroform of the compounds of Examples 1 and 3 and Comparative Example 1, in which carves 1, 2 and 3 are the absorption curves of the compounds of Example 1, Example 3 and Comparative Example i respectively.
In the anthraquinone of present invention, at least one of four anilido benzene rings is substituted by a halogen atom such as chlorine, fluorine and bromine, which preferably is in the p-position. The anthraquinone bearing a halogen atom realizes a wave shape of the light absorption of the absorption curves of these compounds render them very suitable for near infrared rays absorbing filters. That is, the anthraquinone bearing a halogen atom can mostly absorb the light in the wavelength range of 700 to 800 nm and realize the transmittance curve which is steeper slope in vicinity of 800 nm than one of other anthraquinone bearing no halogen atom.
In general, laser beams used for the near infrared rays absorbing filters have a wavelength of 830 nm or more, but the wavelength depends upon use applications. In the examples described following, the most usual wavelength of about 860 nm was used to measure the transmittance of compounds represented by the formula (I), and the estimation was made by comparing absorption wave shapes. […]

| Structure (SMILES) | transmittance at 860 nm of the product in chloroform [1] [%] | transmission of the product in a 800-830 wavelength range [2] | Transmittance* [1] [%] |
| --- | --- | --- | --- |
| Cc1ccc(Nc2ccc(Nc3ccc(C)cc3)c3c2C(=O)c2c(Nc4ccc(C)cc4)ccc(Nc4ccc(C)cc4)c2C3=O)cc1 [Comparative Example 1, 1,4,5,8-tetrakis(p-methylanilido)anthraquinone, reference compound] | 99 | poor | – |
| Cc1ccc(Nc2ccc(Nc3ccc(C)cc3)c3c2C(=O)c2c(Nc4ccc(C)cc4)ccc(Nc4ccc(Cl)cc4)c2C3=O)cc1 [Example 1, 1-(p-chloroanilido)-4,5,8-tris(p-methylanilido)anthraquinone] | 99 | – | – |
| CCCCc1ccc(Nc2ccc(Nc3ccc(Cl)cc3)c3c2C(=O)c2c(Nc4ccc(CCCC)cc4)ccc(Nc4ccc(CCCC)cc4)c2C3=O)cc1 [Example 2, 1-(p-chloroanilido)-4,5,8-tris(p-n-butylanilido)anthraquinone] | 99.2 | – | – |
| Cc1ccc(Nc2ccc(Nc3ccc(C)cc3)c3c2C(=O)c2c(Nc4ccc(Cl)cc4)ccc(Nc4ccc(Cl)cc4)c2C3=O)cc1 [Example 3, 1,4-bis(p-chloroanilido)-5,8-bis(p-methylanilido)anthraquinone] | 99.6 | – | – |
| O=C1c2c(Nc3ccccc3)ccc(Nc3ccccc3)c2C(=O)c2c(Nc3ccc(Cl)cc3)ccc(Nc3ccccc3)c21 [Example 4] | – | – | 98.8 |
| COc1ccc(Nc2ccc(Nc3ccc(Cl)cc3)c3c2C(=O)c2c(Nc4ccc(OC)cc4)ccc(Nc4ccc(OC)cc4)c2C3=O)cc1 [Example 5] | – | – | 98.9 |
| O=C1c2c(Nc3ccc(Cl)cc3)ccc(Nc3ccc(Cl)cc3)c2C(=O)c2c(Nc3ccc(Cl)cc3)ccc(Nc3ccc(Cl)cc3)c21 [Example 6] | – | – | 100 |
| O=C1c2c(Nc3ccc(Cl)cc3)ccc(Nc3ccc(C4CCCCC4)cc3)c2C(=O)c2c(Nc3ccc(C4CCCCC4)cc3)ccc(Nc3ccc(C4CCCCC4)cc3)c21 [Example 7] | – | – | 99.2 |
| O=C1c2c(Nc3ccc(O)cc3)ccc(Nc3ccc(O)cc3)c2C(=O)c2c(Nc3ccc(Cl)cc3)ccc(Nc3ccc(Cl)cc3)c21 [Example 8] | – | – | 98.5 |
| Cc1ccc(Nc2ccc(Nc3ccc(Cl)cc3)c3c2C(=O)c2c(Nc4ccc(C5CCCCC5)cc4)ccc(Nc4ccc(C)cc4)c2C3=O)cc1 [Example 9] | – | – | 99.5 |
| Cc1ccc(Nc2ccc(Nc3ccc(C)cc3)c3c2C(=O)c2c(Nc4ccc(C)cc4)ccc(Nc4ccc(F)cc4)c2C3=O)cc1 [Example 10] | – | – | 99.2 |
| Cc1ccc(Nc2ccc(Nc3ccc(C)cc3)c3c2C(=O)c2c(Nc4ccc(C)cc4)ccc(Nc4cccc(Br)c4)c2C3=O)cc1 [Example 11] | – | – | 98.2 |
| COc1ccc(Nc2ccc(Nc3ccc(OC)cc3)c3c2C(=O)c2c(Nc4ccc(OC)cc4)ccc(Nc4cccc(F)c4)c2C3=O)cc1 [Example 12] | – | – | 99.6 |
| Cc1ccc(Nc2ccc(Nc3ccc(C4CCCCC4)cc3)c3c2C(=O)c2c(Nc4ccc(Br)cc4)ccc(Nc4ccc(C5CCCCC5)cc4)c2C3=O)cc1 [Example 13] | – | – | 99.1 |
